Here are results for four compounds from paper PMC9182199, “Borylated 2,3,4,5-Tetrachlorophthalimide and Their 2,3,4,5-Tetrachlorobenzamide Analogues: Synthesis, Their Glycosidase Inhibition and Anticancer Properties in View to Boron Neutron Capture Therapy” (Molecules, 2022).

The target of data set [1] is rat intestinal maltase α-glucosidase. The data set can be described thus: Glycosidase inhibition, laboratory 1: rat intestinal maltase. It is filed as biochemical. The note with it: methanol; for IC50: rat intestinal maltase α-glucosidase. The source says:
(§1) The enzymes α-glucosidase (from yeast), β-glucosidases (from almond and bovine liver), α-galactosidase (from coffee beans), β-galactosidase (from bovine liver), α-mannosidase (from Jack bean), β-mannosidase (from snail), α-L-rhamnosidase (from Penicillium decumbens), α-L-fucosidase (from bovine kidney), trehalase (from porcine kidney), β-glucuronidases (from E. coli and bovine liver), amyloglucosidase (from A. niger), para-nitrophenyl glycosides, and various disaccharides were purchased from Sigma-Aldrich Co (St Louis, MO, USA).
(§2) Brush border membranes were prepared from the rat small intestine according to the method of Kessler et al. and were assayed at pH 6.8 for rat intestinal maltase using maltose. For rat intestinal maltase, porcine kidney trehalase, and A. niger amyloglucosidase activities, the reaction mixture contained 25 mM maltose and the appropriate amount of enzyme, and the incubations were performed for 10–30 min at 37 °C. The reaction was stopped by heating at 100 °C for 3 min. After centrifugation (600× g; 10 min), the resulting reaction mixture was added to the Glucose CII-test Wako (Wako Pure Chemical Ind., Osaka, Japan). The absorbance at 505 nm was measured to determine the amount of the released D-glucose. Other glycosidase activities were determined using an appropriate para-nitrophenyl glycoside as substrate at the optimum pH of each enzyme. The reaction mixture contained 2 mM of the substrate and the appropriate amount of enzyme. The reaction was stopped by addition of 400 mM Na2CO3. The released para-nitrophenol was measured spectrometrically at 400 nm. All reactions run in methanol.

The next data set concerns the target almond β-glucosidase. Kind of data set: Glycosidase inhibition, laboratory 1: almond β-glucosidase. It is filed as biochemical. Conditions: methanol.
From the text: as §1, §2

Data set [2] addresses T1, coffee beans α-galactosidase (Coffea arabica, UniProt Q42656).
T1 construct: purchased Sigma-Aldrich Co
Kind of data set: Glycosidase inhibition, laboratory 1: coffee beans α-galactosidase. Type of data set: biochemical. Conditions: methanol.
From the text: as §1, §2

Another data set has as its system snail β-mannosidase. The data set can be described thus: Glycosidase inhibition, laboratory 1: snail β-mannosidase. Conditions: methanol. It is filed as biochemical.
From the text: as §1, §2

The subject of data set [3] is bovine liver β-glucuronidase. Kind of data set: Glycosidase inhibition, laboratory 1: bovine liver β-glucuronidase. It is filed as biochemical. The note with it: methanol.
From the text: as §1, §2

Data set [4] deals with T2, A. niger amyloglucosidase (Aspergillus niger, UniProt P69328).
T2 construct: purchased Sigma-Aldrich Co
T2 sequence (P69328 25-640): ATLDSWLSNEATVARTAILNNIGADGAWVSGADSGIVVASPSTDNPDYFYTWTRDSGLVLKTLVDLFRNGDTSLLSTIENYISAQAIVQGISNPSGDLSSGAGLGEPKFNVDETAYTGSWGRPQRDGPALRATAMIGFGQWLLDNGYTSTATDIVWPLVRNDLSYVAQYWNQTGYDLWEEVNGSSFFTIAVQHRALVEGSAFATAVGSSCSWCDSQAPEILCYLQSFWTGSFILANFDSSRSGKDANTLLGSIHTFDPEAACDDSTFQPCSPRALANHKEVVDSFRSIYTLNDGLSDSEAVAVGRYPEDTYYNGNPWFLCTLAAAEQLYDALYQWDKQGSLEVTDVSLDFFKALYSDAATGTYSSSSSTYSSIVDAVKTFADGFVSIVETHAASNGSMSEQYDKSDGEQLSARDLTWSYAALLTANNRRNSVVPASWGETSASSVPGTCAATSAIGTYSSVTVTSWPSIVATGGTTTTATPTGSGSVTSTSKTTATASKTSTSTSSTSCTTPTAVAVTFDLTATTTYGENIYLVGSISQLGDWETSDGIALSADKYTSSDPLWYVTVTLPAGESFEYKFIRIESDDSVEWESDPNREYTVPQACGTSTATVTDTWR
The data set can be described thus: Glycosidase inhibition, laboratory 1: amyloglucosidase. Type of data set: biochemical. Conditions: for inhibition at 100 µM: read-out: inhibition % at 100 μM.
From the text: as §1, §2

Data set [5] in a line: Appearance of the 1 mg/mL aqueous solution tested. Type of data set: physicochemical. The note with it: 1 mg/mL in water.
For the next data set, the system named is MCF-7. The data set can be described thus: MTT cell growth inhibition: MCF-7. Type of data set: cell-based. The note with it: MCF-7 breast carcinoma; for inhibition at 25 µM: MCF7, read-out: Percentage (%) Cell Growth Inhibition in response to 25 µM of Drug. How it is done: (§3) All test agents were prepared as stock solutions (20 mM) in dimethyl sulfoxide (DMSO) and stored at −20 °C. Cell lines used in the study included HT29 (colorectal carcinoma); U87, SJ-G2, (glioblastoma); MCF-7, (breast carcinoma); A2780 (ovarian carcinoma); H460 (lung carcinoma); A431 (skin carcinoma); Du145 (prostate carcinoma); BE2-C (neuroblastoma); MiaPaCa-2 (pancreatic carcinoma); and SMA560 (spontaneous murine astrocytoma), together with the one non-tumour-derived normal breast cell line (MCF10A). All cell lines were incubated in a humidified atmosphere 5% CO2 at 37 °C. The cancer cell lines were maintained in Dulbecco’s modified Eagle’s medium (DMEM; Sigma, Australia) supplemented with foetal bovine serum (10%), sodium pyruvate (10 mM), penicillin (100 IUmL^−1), streptomycin (100 µg mL^−1) and L-glutamine (2 mM).
(§4) Growth inhibition was determined by plating cells in duplicate in medium (100 µL) at a density of 2500–4000 cells per well in 96-well plates. On day 0 (24 h after plating), when the cells were in logarithmic growth, medium (100 µL) with or without the test agent was added to each well. After 72 h drug exposure, growth inhibitory effects were evaluated using the MTT (3-(4,5-dimethyltiazol-2-yl)-2,5-diphenyltetrazolium bromide) assay and absorbance read at 540 nm. The percentage growth inhibition was calculated at a fixed concentration of 25 µM, based on the difference between the optical density values on day 0 and those at the end of drug exposure. Each data point is the mean ± the standard error of the mean (SEM) calculated from three replicates which were performed on separate occasions and separate cell line passages.

In the next data set the test system is A2780. Kind of data set: MTT cell growth inhibition: A2780. Type of data set: cell-based. The note with it: A2780 ovarian carcinoma; for inhibition at 25 µM: read-out: Percentage (%) Cell Growth Inhibition in response to 25 µM of Drug. How it is done: as §3, §4
The subject of the next data set is H460. Kind of data set: MTT cell growth inhibition: H460. Type of data set: cell-based. The note with it: H460 lung carcinoma; for inhibition at 25 µM: NCI-H460, read-out: Percentage (%) Cell Growth Inhibition in response to 25 µM of Drug. The method, then: as §3, §4
In the next data set the test system is A431. The data set can be described thus: MTT cell growth inhibition: A431. It is filed as cell-based. Conditions: A431 skin carcinoma; for inhibition at 25 µM: A-431, read-out: Percentage (%) Cell Growth Inhibition in response to 25 µM of Drug. How it is done: as §3, §4
Another data set deals with Du145. The data set can be described thus: MTT cell growth inhibition: Du145. It is filed as cell-based. The note with it: 72 h; for inhibition at 25 µM: Homo sapiens, DU-145, Du145 prostate carcinoma, read-out: Percentage (%) Cell Growth Inhibition in response to 25 µM of Drug. How it is done:
as §3, §4

The subject of a further data set is SJ-G2. The data set can be described thus: MTT cell growth inhibition: SJ-G2. The note with it: SJ-G2 glioblastoma, 72 h; for inhibition at 25 µM: read-out: Percentage (%) Cell Growth Inhibition in response to 25 µM of Drug. Type of data set: cell-based. The method, then:
as §3, §4

The test system of the next data set is MCF10A. Kind of data set: MTT cell growth inhibition: MCF10A normal breast. It is filed as cell-based. The note with it: 72 h; for inhibition at 25 µM: Homo sapiens, MCF-10A, read-out: Percentage (%) Cell Growth Inhibition in response to 25 µM of Drug. How it is done:
as §3
The non-cancer MCF10A cell line was maintained in DMEM:F12 (1:1) cell culture media, 5% heat-inactivated horse serum, supplemented with penicillin (50 IUmL^−1), streptomycin (50 µg mL^−1), HEPES (20 mM), L-glutamine (2 mM), epidermal growth factor (20 ng mL^−1), hydrocortisone (500 ng mL^−1), cholera toxin (100 ng mL^−1) and insulin ([…]).
as §4

Where two headings read alike, the source gives them in different places. A value given as a limit tells only on which side of the number the result lay.

T1 sequence (Q42656 16-378): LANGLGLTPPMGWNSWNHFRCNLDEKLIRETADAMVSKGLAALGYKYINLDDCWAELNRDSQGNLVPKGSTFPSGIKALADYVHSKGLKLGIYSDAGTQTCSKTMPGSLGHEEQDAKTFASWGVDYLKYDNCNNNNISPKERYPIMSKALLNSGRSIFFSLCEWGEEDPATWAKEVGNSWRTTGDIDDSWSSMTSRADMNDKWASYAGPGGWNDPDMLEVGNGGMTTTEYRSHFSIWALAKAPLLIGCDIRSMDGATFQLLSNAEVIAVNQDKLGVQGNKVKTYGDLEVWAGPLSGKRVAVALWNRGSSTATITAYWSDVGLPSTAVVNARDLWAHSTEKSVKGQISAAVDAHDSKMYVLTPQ

As for `CC1(C)OB(c2ccccc2CNC(=O)c2cc(Cl)c(Cl)c(Cl)c2Cl)OC1(C)C` [ortho 8, 2,3,4,5-tetrachloro-N-(2-(4,4,5,5-tetramethyl-1,3,2-dioxaborolan-2-yl)benzyl)benzamide], the IC50 in [1] stood at 305 µM; at almond β-glucosidase, 254 µM. For the same compound, the values for the inhibition at 100 µM in data set [2] and in data set [4] were 114% and 0%, respectively. In addition, the figures for the “inhibition % at 100 μM” value (in the data set with snail β-mannosidase; in data set [3]) were “^aNI ^b (39%)” and “^aNI ^b (16.3%)”, respectively. Further, the “Appearance of the 1 mg/mL Aqueous Solution Tested” value (“Appearance” below) in data set [5] is listed as “some in solution with undissolved sediment”. The inhibition at 25 µM in the data set with MCF-7 (Homo sapiens, 25 µM, 72 h, MTT) was < 0%; with A2780 (Homo sapiens, 25 µM, 72 h, MTT), 19 ± 10%; in the data set with H460 (Homo sapiens, 25 µM, 72 h, MTT), 0%; in the data set on A431 (Homo sapiens, 25 µM, 72 h, MTT), < 0%; in the data set with Du145 it was < 0%; in the data set with SJ-G2 it was < 0%. Moreover, the inhibition at 25 µM with MCF10A was < 0%.

As for `CC1(C)OB(c2ccc(CN3C(=O)c4c(Cl)c(Cl)c(Cl)c(Cl)c4C3=O)cc2)OC1(C)C` [para 3, 4,5,6,7-Tetrachloro-2-(4-(4,4,5,5-tetramethyl-1,3,2-dioxaborolan-2-yl)benzyl)isoindoline-1,3-dione], the “inhibition % at 100 μM” value in data set [1] (rat intestinal maltase, 100 μM) is reported as “^aNI ^b (12.2%)”; in the data set with almond β-glucosidase, “^aNI ^b (0.7%)”; in the data set with snail β-mannosidase it was “^aNI ^b (0%)”; in [3], “^aNI ^b (1.0%)”. Further, the inhibition at 100 µM in [2] was 0.2%; in data set [4] it was 1%. The “Appearance” value in data set [5] was “some in solution with undissolved sediment”. Moreover, the GI50 in the data set on MCF-7 (Homo sapiens, MCF7, read-out: GI50 = Concentration (µM) that inhibits cell growth by 50%, dose response) was 3 ± 1.3 µM; in the data set with A2780 (Homo sapiens, read-out: GI50 = Concentration (µM) that inhibits cell growth by 50%, dose response) it was 11 ± 1.1 µM; in the data set on H460 (Homo sapiens, NCI-H460, read-out: GI50 = Concentration (µM) that inhibits cell growth by 50%, dose response), 13 ± 0.33 µM; in the data set with A431 (Homo sapiens, A-431, read-out: GI50 = Concentration (µM) that inhibits cell growth by 50%, dose response) it was 18 ± 2.3 µM. In addition, the inhibition at 25 µM in the data set with MCF-7 (Homo sapiens, 25 µM, 72 h, MTT) was > 100%; with A2780 (Homo sapiens, 25 µM, 72 h, MTT), > 100%; with H460 (Homo sapiens, 25 µM, 72 h, MTT), 100 ± 2%; in the data set with A431 (Homo sapiens, 25 µM, 72 h, MTT), 85 ± 8%; with Du145, > 100%; in the data set on SJ-G2 it was > 100%. Moreover, the inhibition at 25 µM in the data set with MCF10A is > 100%.

In data set [1], `CC1(C)OB(c2ccc(NC(=O)c3cc(Cl)c(Cl)c(Cl)c3Cl)cc2)OC1(C)C` [para 5, 2,3,4,5-tetrachloro-N-(4-(4,4,5,5-tetramethyl-1,3,2-dioxaborolan-2-yl)phenyl)benzamide] yielded an IC50 of 188 µM. The figures for the “inhibition % at 100 μM” value (in the data set with almond β-glucosidase; in the data set with snail β-mannosidase; in [3]) were “^aNI ^b (17.1%)”, “^aNI ^b (30.4%)” and “^aNI ^b (36.5%)”, respectively. Besides, the inhibition at 100 µM in data set [2] turned out to be 35.8%; in [4] (A. niger amyloglucosidase, 100 μM, methanol), 0%. For the same compound, in data set [5], the “Appearance” value is “some in solution with undissolved sediment”. In addition, the inhibition at 25 µM in the data set on MCF-7 (Homo sapiens, 25 µM, 72 h, MTT) stood at 42 ± 5%; with A2780 (Homo sapiens, 25 µM, 72 h, MTT) it was 50 ± 1%; in the data set on H460 (Homo sapiens, 25 µM, 72 h, MTT), 54 ± 2%; with A431 (Homo sapiens, 25 µM, 72 h, MTT) it was 64 ± 4%; in the data set on Du145, 1 ± 13%; with SJ-G2, 28 ± 6%. In the data set with MCF10A, the inhibition at 25 µM is 2 ± 11%.

Turning to “Borocaptate sodium [BSH, reference compound]”, the “inhibition % at 1000 μM” value is reported as “^aNI ^b(0%)” in data set [1] (rat intestinal maltase, 1000 μM); “^aNI ^b (0%)” with almond β-glucosidase (1000 μM); “^aNI ^b (12.3%)” in data set [2] (1000 μM); “^aNI ^b (19.2%)” in the data set with snail β-mannosidase (1000 μM); “^aNI ^b (19.6%)” in [3] (1000 μM); “^aNI ^b (0%)” in [4] (A. niger amyloglucosidase, 1000 μM, methanol). The “Appearance” value in [5] is “in solution”. In addition, the “Percentage (%) Cell Growth Inhibition in response to 25 µM of Drug” value is given as 15 ± 3% with MCF-7 (25 µM, 72 h, MTT); 2 ± 5% with A2780 (25 µM, 72 h, MTT); 8 ± 2% with H460 (25 µM, 72 h, MTT); <0% in the data set on A431 (25 µM, 72 h, MTT); 0 ± 8% with Du145 (Du145 prostate carcinoma); 3 ± 8% in the data set with SJ-G2. The “Percentage (%) Cell Growth Inhibition in response to 25 µM of Drug” value with MCF10A (MCF10A breast (normal), 25 µM, MTT) is given as 8 ± 3%.

As usually defined, the IC50 is the concentration needed to halve the response being measured. A high value points to a need for much substance. The term inhibition denotes the relative decrease from the control value, in per cent.
